Test [1] in a line: DPPH radical scavenging assay. The conditions noted are these: positive controls, each time point and concentration (0.03 and 0.06 mg/mL). As for the experimental part: Briefly, the compounds were dissolved at a concentration of 1 mg/mL in absolute methanol, and a dilution was prepared. […] Then, 100 µL of the DPPH solution was added to 100 µL of the compounds’ solution to a final concentration of 0.03 mg/mL or 0.06 mg/mL, and the decolorization of the purple radical to the yellowish reduced form was followed by recording the absorbance at 517 nm. Ascorbic acid (Asc) and Trolox were used as positive controls. Both of them, Asc and Trolox, were purchased from Sigma-Aldrich. Determinations were recorded at eight different time intervals from 0 to 120 min on a BioTeck PowerWave XS spectrophotometer, and the data were collected using KCJunior version 1.41. software. All the measurements were carried out in triplicate. Results are expressed as the percentage of the radical scavenged, calculated using the following formula: % DPPH radical scavenging = [(Acontrol − Asample)/Acontrol] × 100, wherein Acontrol refers to the absorbance of the negative control and Asample refers to the absorbance of the tested compounds.

Test [2] deals with T-47D breast cancer cells. Briefly: MTT cell viability assay, T-47D. It is filed as cell-based. The following applies: 48 h, mean ± SD. As for the experimental part:
(§1) The cell lines were purchased from the American Type Culture Collection (ATCC). The cancer cell lines DU-145, PC-3, T-47D, MDA-MB-231, H1299, and A549, and the non-tumorigenic cells (184B5 and BEAS-2B), were maintained in RPMI 1640 medium (Gibco, Alcobendas, Madrid, Spain) supplemented with 10% fetal bovine serum (FBS; Gibco) and 1% antibiotics (10.00 units/mL penicillin and 10.00 mg/mL streptomycin; Gibco). Colon cancer cells HT-29 and HCT-116 were cultured in McCoy’s 5A medium (Gibco) supplemented with 10% fetal bovine serum (FBS; Gibco) and 1% antibiotics (10.00 units/mL penicillin and 10.00 mg/mL streptomycin; Gibco). Cells were maintained in tissue culture flasks at 37 °C and 5% CO2. The culture medium was replaced every three days.
(§2) The antiproliferative activity and selectivity in vitro of the Se-NSAID derivatives were determined by the (3-(4,5-dimethylthiazol-2-yl)-2,5-diphenyltetrazolium bromide) (MTT) assay. Compounds were dissolved in DMSO at a concentration of 0.01 M and serial dilutions were prepared. The Se-NSAID derivatives were tested at seven concentrations ranging between 1 and 100 µM in the colon (HT-29 and HCT-116), prostate (DU-145 and PC-3), breast (MDA-MB-231 and T-47D), and lung (H1299 and A549) cancer cell lines. The non-tumorigenic breast (184B5) and lung (BEAS-2B) cell lines were also tested to assess the selectivity of the compounds following the same procedure. A total of 1 × 10^4 cells were seeded per well in 96-well plates and incubated at 5% CO2 and 37 °C for 24 h. Then, cells were treated with either DMSO or increasing concentrations of the corresponding Se-NSAID derivatives for 48 h. A volume of 20 µL of MTT (5 mg/mL) was added to each well 2.5 h before the termination point. At the end of the experiment, the medium was removed, and the resultant formazan crystals formed by mitochondrial reduction of MTT were dissolved in 50 µL of DMSO. Absorbance was measured at 550 nm. IC50, GI50, TGI, and LC50 values were calculated using OriginPro version 8.5.1. software by nonlinear curve fitting. Selectivity indexes (SI) were calculated as the ratio of the IC50 values determined for the nonmalignant and the tumoral cells in the breast (IC50 (184B5)/IC50 (MDA-MB-231) and IC50 (184B5)/IC50 (T-47D)) and lung (IC50 (BEAS-2B)/IC50 (H1299) and IC50 (BEAS-2B)/IC50 (A549)) cell lines. Data were obtained from at least three independent experiments performed in triplicates.
Background: Tetrazolium dyes change colour on reduction, which living cells bring about.

In test [3] the test system is MDA-MB-231 breast cancer cells. In words: MTT cell viability assay, MDA-MB-231. It is filed as cell-based. The conditions noted are these: Homo sapiens, MDA-MB-231, 48 h, mean ± SD. Here is the method:
as §1, §2

In test [4] the test system is BEAS-2B non-tumorigenic lung (bronchial epithelium) cells. In words: MTT cell viability assay, BEAS-2B. The conditions noted are these: 48 h, mean ± SD. It is filed as cell-based. As for the experimental part:
as §1, §2

Test [5] concerns PC-3 prostate cancer cells. In words: MTT cell viability assay, PC-3. It is filed as cell-based. The conditions noted are these: 48 h, mean ± SD. Here is the method:
as §1, §2

The test system of test [6] is 184B5 non-tumorigenic breast (mammary gland) cells. In words: MTT cell viability assay, 184B5. It is filed as cell-based. The following applies: mean ± SD. Here is the method:
as §1, §2

For test [7], the system named is HT-29 colon cancer cells. Briefly: MTT cell viability assay, HT-29. It is filed as cell-based. The conditions noted are these: Homo sapiens, HT-29, 48 h, mean ± SD. As for the experimental part: as §1, §2
The test system of test [8] is H1299 lung cancer cells. Briefly: MTT cell viability assay, H1299. It is filed as cell-based. The following applies: Homo sapiens, NCI-H1299, 48 h, mean ± SD. As for the experimental part:
as §1, §2

Test [9] concerns DU-145 prostate cancer cells. In words: MTT cell viability assay, DU-145. The following applies: Homo sapiens, DU-145, 48 h, mean ± SD. It is filed as cell-based. As for the experimental part:
as §1, §2

Test [10] relates to A549 lung cancer cells. In words: MTT cell viability assay, A549. It is filed as cell-based. The conditions noted are these: Homo sapiens, A549, 48 h, mean ± SD. As for the experimental part:
as §1, §2

Test [11] has as its system panel of eight cancer cell lines. Briefly: MTT cell viability assay, statements on the whole panel. It is filed as cell-based. The following applies: 48 h, result in words. Here is the method: as §1, §2
Test [12] relates to HCT-116 colon cancer cells. Briefly: MTT cell viability assay, HCT-116. The conditions noted are these: mean ± SD. It is filed as cell-based. As for the experimental part: as §1, §2
Test [13] relates to PC-3 prostate cancer cells. Set-up: method as in PMID 26750401, PMID 32987314, PMID 33799070, PMID 36257283. The conditions noted are these: MTT; parent NSAIDs for reference, some values obtained from the literature; cited from earlier work.
Test [14] deals with HT-29 colon cancer cells. Set-up: method as in PMID 26750401, PMID 32987314, PMID 33799070, PMID 36257283. The conditions noted are these: MTT; parent NSAIDs for reference, some values obtained from the literature; cited from earlier work.
The test system of test [15] is HCT-116 colon cancer cells. Also on record: method as in PMID 26750401, PMID 32987314, PMID 33799070, PMID 36257283. The conditions noted are these: MTT; parent NSAIDs for reference, some values obtained from the literature; cited from earlier work.
The subject of test [16] is H1299 lung cancer cells. Also on record: method as in PMID 26750401, PMID 32987314, PMID 33799070, PMID 36257283. The following applies: MTT; parent NSAIDs for reference, some values obtained from the literature; cited from earlier work.
Test [17] has as its system T-47D breast cancer cells. Also on record: method as in PMID 26750401, PMID 32987314, PMID 33799070, PMID 36257283. The following applies: MTT; parent NSAIDs for reference, some values obtained from the literature; cited from earlier work.
Test [18] has as its system MDA-MB-231 breast cancer cells. Set-up: method as in PMID 26750401, PMID 32987314, PMID 33799070, PMID 36257283. The following applies: MTT; parent NSAIDs for reference, some values obtained from the literature; cited from earlier work.
For test [19], the system named is A549 lung cancer cells. Set-up: method as in PMID 26750401, PMID 32987314, PMID 33799070, PMID 36257283. The following applies: MTT; parent NSAIDs for reference, some values obtained from the literature; cited from earlier work.
The subject of test [20] is DU-145 prostate cancer cells. Also on record: method as in PMID 26750401, PMID 32987314, PMID 33799070, PMID 36257283. The following applies: MTT; parent NSAIDs for reference, some values obtained from the literature; cited from earlier work.

The values that follow come from paper PMC10525927, “First Generation of Antioxidant Precursors for Bioisosteric Se-NSAIDs: Design, Synthesis, and In Vitro and In Vivo Anticancer Evaluation” (Antioxidants, 2023).

Where two headings read alike, the source gives them in different places.

On to `O=C1O[C@H]([C@@H](O)CO)C(O)=C1O` [Asc, Ascorbic acid, reference compound], for which the “DPPH radical scavenging activity” value in test [1] is reported as “maximal scavenging activity”.

As for `COc1ccc2c(c1)c(CC(=O)[Se][Se]C(=O)Cc1c(C)n(C(=O)c3ccc(Cl)cc3)c3ccc(OC)cc13)c(C)n2C(=O)c1ccc(Cl)cc1` [Compound 2, 2-(1-(4-Chlorobenzoyl)-5-methoxy-2-methyl-1H-indol-3-yl)acetic diselenoperoxyanhydride], the IC50 is more than 50 µM in test [2] (Homo sapiens, T47D); more than 50 µM in test [3]; more than 100 µM in [4] (Homo sapiens, BEAS-2B, nonmalignant lung cells); more than 50 µM in test [5]; more than 100 µM in [6] (Homo sapiens, 184B5, 48 h, nonmalignant breast cells); more than 50 µM in [7]. Besides, the IC50 in test [8] is more than 50 µM; in test [9], more than 50 µM; in test [10] it was more than 50 µM; in test [12] (Homo sapiens, HCT-116, 48 h), more than 50 µM. Also, the GI50 in test [2] (Homo sapiens, T47D, Table S1) is 25.5 ± 10.2 µM; in [3] (Table S1), 23.1 ± 14.3 µM; in [4] (Homo sapiens, BEAS-2B, Table S1), more than 100 µM; in test [5] (Table S1), more than 100 µM; in test [6] (Homo sapiens, 184B5, 48 h, Table S1) it was more than 100 µM; in [7] (Table S1), more than 100 µM. The GI50 in test [8] (Table S1) was 53.2 ± 1.2 µM; in test [9] (Table S1) it was 58.4 ± 8.4 µM; in test [10] (Table S1), more than 100 µM; in [12] (Homo sapiens, HCT-116, 48 h, Table S1), 44.5 ± 3.4 µM. In addition, the “TGI T-47D” value in test [2] (in vitro TGI concentration, Table S1) worked out at 39.0 ± 8.5 µM. The “IC50 BEAS-2B” value in [4] (nonmalignant lung cells) was “completely inactive”. In test [6] (48 h, nonmalignant breast cells), the “IC50 184B5” value is “completely inactive”. Besides, in test [11], the “antiproliferative activity against all the eight cell lines” value is recorded as “no activity”. Besides, the “TGI HCT-116” value in test [12] (in vitro TGI concentration, 48 h, Table S1) amounted to 81.5 ± 2.3 µM.

As for `CC(C(=O)O)c1cccc(C(=O)c2ccccc2)c1` (stereo not shown) [Ket, ketoprofen], the IC50 in test [13], in test [14], in [15], in [16], in test [17] and in test [18] was more than 50 µM in each case. Also, the IC50 in [19] and in [20] was more than 50 µM in each case.

On to `CC(=O)Oc1ccccc1C(=O)O` [ASA, aspirin], for which the IC50 in test [13], in test [14], in [15], in test [16], in test [17] and in test [18] was more than 50 µM each time. Also, the IC50 in [19] and in test [20] was more than 50 µM in each case.

For the molecule `CC(C)Cc1ccc(C(C)C(=O)O)cc1` (stereo not shown) [Ibup, ibuprofen], the IC50 in test [13], in test [14], in [15], in [16], in test [17] and in [18] was more than 50 µM throughout. For the same molecule, the IC50 in test [19] and in [20] was more than 50 µM in each case.

For the molecule `Cc1c(C)c2c(c(C)c1O)CCC(C)(C(=O)O)O2` (stereo not shown) [Trolox, reference compound], the “DPPH radical scavenging activity” value in test [1] is on record as “maximal scavenging activity”.

On to `COc1ccc2c(c1)c(CC(=O)O)c(C)n2C(=O)c1ccc(Cl)cc1` [Ind, indomethacin], for which the IC50 in [13], in test [14], in test [15], in test [16], in [17] and in test [18] was more than 50 µM throughout. Further, the IC50 in [19] and in [20] was more than 50 µM each time.

With `COc1ccc2cc([C@H](C)C(=O)O)ccc2c1` [Nap, naproxen], the IC50 in [13], in [14], in test [15], in test [16], in test [17] and in test [18] was more than 50 µM each time. The IC50 in test [19] and in test [20] was more than 50 µM throughout.

By IC50 is commonly meant the concentration needed to halve the response being measured. As a reminder, the GI50 is the concentration giving 50% growth inhibition.
